# Laboratory results published in US20240158794A1, “NUCLEOSIDE CONTAINING siRNAS FOR TREATING VIRAL DISEASES” (priority 2020, published 2024).
# Like-named read-outs stand apart in the source and are kept apart here. Where no end group is shown, it is not given here.
# Assays:
# [1] = human, in vivo; cited from earlier work
# HBV [2] = settings: compared with lamivudine; cited from earlier work
# HBV [3] = settings: 715 treatment-naive HBeAg-positive patients, compared with lamivudine; cited from earlier work
# target mRNA [4] = settings: cited from earlier work
# target mRNA [5] = experiment: HK polymers as carriers of siRNA (transfection, reduction of target mRNA); type: cell-based; settings: highly branched polymers with eight terminal branches
# [6] = siRNA uptake with HK carriers; type: cell-based; settings: compared with other HK polymers or non-viral carriers tested
molecule,measurement,setting,value
"Cc1cn([C@H]2O[C@@H](CO)[C@H](O)[C@H]2F)c(=O)[nH]c1=O [Clevudine, 2′-fluoro-5-methyl-b-L-arabinofuranosyl-uracil]",adverse events that halted development,[1],myopathy and mitochondrial toxicity
C=C1[C@H](CO)[C@@H](O)C[C@@H]1n1cnc2c(=O)[nH]c(N)nc21 [Entecavir],reducing viral DNA replication in vitro,HBV [2],more effective than lamivudine
same,"rate of histological, virological and biochemical improvement",HBV [3],significantly higher rate
"H^2K4b: four-branched histidine-lysine peptide polymer, branch KHKHHKHHKHHKHHKHHKHK- (also: one branch of four-branched polymer on lysine core)",carrier of siRNA,target mRNA [4],poor carrier
"H^3K4b: four-branched histidine-lysine peptide polymer, branch KHHHKHHHKHHHKHHHK- (also: one branch of four-branched polymer on lysine core)",carrier of siRNA,target mRNA [4],effective carriers
"H^3K8b: highly branched histidine-lysine polymer with eight terminal branches and a histidine-rich domain (also: chain 2 K16 side chain amide-linked to another sequence, chain 3 K16, K26, K27, K28 side chains amide-linked to other sequences (branched core)) chain 1: HHHKHHHKHHHKHHH chain 2: HHHKHHHKHHHKHHHKHHHHNHHHH chain 3: HHHKHHHKHHHKHHHKHHHHNHHHHKKK-NH2",carrier of siRNA,target mRNA [5],highly effective
same,siRNA uptake,[6],more effectively than other HK polymers or non-viral carriers tested
